Assay results from publication PMC12435366, “Maleic anhydride derived diphosphines: adaptable chelators for receptor-targeted ^99mTc, ^64Cu and ^188Re radiotracers” (Chemical Science, 2025).

System: DU145-PSMA+ prostate cancer xenografts
Assay type: in vivo, mice
Settings: for tumour delineation in SPECT/CT scans: male SCID/Beige mice bearing DU145-PSMA+ xenografts, SPECT 15 to 120 min post-injection; for clearance from blood pool (SPECT/CT): mouse, in vivo
Procedure: The biodistribution of [^99mTcO2(DP^An-PSMAt)2]^+ and [^99mTcO2(DP^MEP-PSMAt)2]^+ was studied using SPECT/CT imaging and ex vivo biodistribution methods. In these studies, [^99mTcO2(DP^An-PSMAt)2]^+ and [^99mTcO2(DP^MEP-PSMAt)2]^+ were used directly from kit-based formulations, without further purification, mimicking procedures used in clinical radiopharmacies and nuclear medicine departments. Mice were injected with [^99mTcO2(DP^An-PSMAt)2]^+ or [^99mTcO2(DP^MEP-PSMAt)2]^+ (4–5 MBq), containing 3 μg (2.6 nmol) of DP^An-PSMAt or 3.5 μg (2.6 nmol) of (DP^MEP-PSMAt) via the tail-vein, and culled 2 h post-injection, followed by dissection, organ/tissue weighing and counting.
SPECT/CT studies were undertaken in male SCID/Beige mice bearing DU145-PSMA+ prostate cancer xenografts administered [^99mTcO2(DP^An-PSMAt)2]^+ and [^99mTcO2(DP^MEP-PSMAt)2]^+. SPECT images were acquired from 15 to 120 min post-injection of radiotracer. […]
4.10 In vivo imaging and biodistribution (DU145-PSMA+ and LNCaP)
Preparation of tumour-bearing mice: All animal experiments were ethically reviewed by an Animal Welfare & Ethical Review Board at either King’s College London or Bart’s Cancer Institute and carried out in accordance with the Animals (Scientific Procedures) Act 1986 UK Home Office regulations governing animal experimentation. Subcutaneous prostate cancer xenografts were produced in SCID/beige mice (male, 7–12 weeks old) by injecting 4 × 10^6 DU145-PSMA+ or DU145 cells suspended in PBS (100 μL) on the right shoulder. Imaging and biodistribution studies were performed once a tumour had reached 5–10 mm in diameter (3–4 weeks after injection). Subcutaneous LNCaP prostate cancer xenografts were produced in athymic nude (Crl:NU(NCr)-Foxn1nu) mice (male, 6–7 weeks old) by injecting 5 × 10^6 LNCaP cells suspended in PBS:matrigel (1:1, 200 μL) on the right flank.
Biodistribution studies using 99mTc radiotracers were performed once a tumour had reached 150– 300 mm3 in volume (2–7 weeks after injection).
SCID/beige mice bearing DU145-PSMA+ prostate cancer tumour xenografts
SPECT/CT scanning and biodistribution studies: The 99mTc radiotracers (3.9–4.5 MBq, 3 mice per group, containing DPAn-PSMAt = 3.0 µg or DPMEP-PSMAt = 3.5 µg) were administered via tail vein injection under isoflurane anaesthesia. […]
in helical scanning mode). At 2 h post-injection, the animals were euthanized by cervical dislocation, organs/tissues harvested and weighed, and radioactivity counted using a gamma […]
ii. […] After scanning, the organs/tissues were harvested, weighed and radioactivity counted […]
Urine was collected and directly analysed by reverse-phase radio-HPLC (method 2). Data were analysed in GraphPad Prism 9 (version 9.1.1) and expressed as mean ± standard deviation (SD). […]

Structure (SMILES)	tumour delineation in SPECT/CT scans	clearance from blood pool (SPECT/CT)
COc1ccc(P(/C(C(=O)O)=C(/C(=O)NCCOCCOCCOCCOCCC(=O)NCCCC[C@H](NC(=O)N[C@@H](CCC(=O)O)C(=O)O)C(=O)O)P(c2ccc(OC)cc2)c2ccc(OC)cc2)c2ccc(OC)cc2)cc1 [[^99mTcO2(DP^An-PSMAt)2]^+, metal not drawn]	could be delineated	rapidly cleared from the blood pool via a renal pathway
COCCOc1ccc(P(/C(C(=O)O)=C(/C(=O)NCCOCCOCCOCCOCCC(=O)NCCCC[C@H](NC(=O)N[C@@H](CCC(=O)O)C(=O)O)C(=O)O)P(c2ccc(OCCOC)cc2)c2ccc(OCCOC)cc2)c2ccc(OCCOC)cc2)cc1 [[^99mTcO2(DP^MEP-PSMAt)2]^+, metal not drawn]	could be delineated	rapidly cleared from the blood pool via a renal pathway
